Test results published in patent US10196365B2, “Quinazoline derivative, preparation method therefor, and pharmaceutical composition and application thereof” (ARROMAX PHARMATECH CO., LTD., priority 2014, dated 2019).
Marks after values point to notes of the source that are not given here.

Legend:
[1] = system: A431 (human epithelial carcinoma cell lines); assay: Growth inhibition test in tumor cells (CCK8), A431; type: cell-based; conditions: A-431, 72 h
[2] = system: NCI H1975 (human non-small cell lung cancer cell lines); assay: Growth inhibition test in tumor cells (CCK8), NCI-H1975; type: cell-based; conditions: 72 h
[3] = system: HCC 827 (human non-small cell lung cancer cell line); assay: Growth inhibition test in tumor cells (CCK8), HCC827; type: cell-based; conditions: HCC 827 cells, 72 h
[4] = system: MDA-MB-453 (human breast cancer cell lines); assay: Growth inhibition test in tumor cells (CCK8), MDA-MB-453; type: cell-based; conditions: MDA-MB-453 cells, 72 h
Experimental: Growth Inhibition Tests of a Series of Compounds in Different Tumor Cells
i. Cell lines: A431 (human epithelial carcinoma cell lines), A549 (human lung cancer cell lines), NCI H1975 (human non-small cell lung cancer cell lines (HCC), HCC 827 (human non-small cell lung cancer cell line), MDA-MB-453 (human breast cancer cell lines)
MDA-MB-453 cell line: 90% L15+10% FBS; trypsin (a 0.25% (W/V) solution was prepared with […], 0.53 mM EDTA was added);
i) Logarithmic growth phase cells were collected and counted, the cells were suspended again with complete medium,
ii) The cell concentration was adjusted to an appropriate concentration, inoculated to 96 holes, each of which with 100 μL cells suspension.
iii) The cells were incubated in a 37° C., 100% relative humidity and 5% CO2 incubator, for 24 h.
i) Logarithmic growth phase cells were collected and counted, the cells were suspended again with complete medium, the cell concentration was adjusted to an appropriate concentration (determined according to the results of cell density optimization test), inoculated to 96 plates, each of which with […] cells suspension. The cells were incubated in a 37° C., 100% relative humidity and 5% CO2 incubator for 24 h.
ii) The test compounds were diluted to the corresponding concentration stated by culture medium, and the cells were inoculated as 25 μL/hole. The final concentration of the compound was from 10 μM to 0 μM, with a gradient of 4 times, and 10 concentration points totally.
iii) The cells were incubated in a 37° C., 100% relative humidity, 5% CO2 incubator for 72 h.
iv) Absorbing the culture medium, the complete medium containing 10% CCK-8 was added and incubated in the incubator of 37° C. for 2-4 h.
v) After a slight shake, the absorbance at 450 nm was measured by SpectraMax M5 Microplate Reader, taking the absorbance at 650 nm as a reference, the inhibition rate was calculated.
The IC50 curve fitting was performed by using the software Graphpad Prism 5 and the calculation formula log (inhibitor) vs. response to calculate the IC50 value.

[5] = system: A549 (human lung cancer cell lines); assay: Growth inhibition test in tumor cells (CCK8), A549; type: cell-based; conditions: 72 h
[6] = system: NCI-H1975 nude mice transplanted tumor; assay: In vivo pharmacodynamics evaluation, NCI-H1975 nude mice transplanted tumor; design: species or system BALB/c nude mice; conditions: 20 mg/kg, qd, gavage, 14 days
Experimental: BALB/c nude mice, female, 6 to 7 weeks of age, weight 20 g±2 g, purchased from Shanghai silaike experimental animal Co. Ltd., SPF environment.
The logarithmic growth phase NCI-H1975 cells cultured in vitro were digested with trypsin, washed with PBS for three times, the cell survival rate was detected by trypan blue exclusion to be >90%, the cell concentration was adjusted to 1×10^7/mL with PBS, which was implanted subcutaneously in back forelimb of the nude mice with 0.2 mL/pcs under aseptic condition. After tumor formation, the tumor were cultured for two passages in vivo, the tumor were stripped out to sterile culture plate when growing to the volume of 300 to 500 mm^3, a small amount of PBS was added, the tumor tissue with vigorous growth were cut into about 1.5 mm^3 tumor blocks, inoculated in right armpit of the nude mice. The diameter of tumor was measured with vernier caliper, when the tumor grew to 100 to 200 mm^3, then the animal were randomly grouping, […], gavage administration, once a day or every other day, continuously administrated for 14 days (d14) and observed for 7 days (d22), the negative control group was administrated with the same amount of solvent (saline solution of 1% DMSO), during the period of administration and recovery, the body weight and tumor size of the nude mice were measured weekly 2 to 3 times. The tumor volume and relative tumor volume were calculated according to the measured data, and the calculation formula of the tumor volume (TV) was TV=1/2×a×b^2, of which a and b represent the tumor length and diameter respectively. The relative tumor volume (RTV) was calculated according to the measured results, and the calculation formula was: RTV=Vt/V0, wherein V0 represents the tumor volume at the beginning of the experiment, Vt represents the volume of the tumor each measured.

Her-2 enzyme = Her-2 enzyme (Homo sapiens (Human), UniProt P04626); assay: HTRF kinEASE TK in vitro kinase assay, Her-2; type: biochemical; conditions: 30 min enzyme reaction, read-out: IC50 against Her-2
Sequence of Her-2 enzyme (P04626 23-1255): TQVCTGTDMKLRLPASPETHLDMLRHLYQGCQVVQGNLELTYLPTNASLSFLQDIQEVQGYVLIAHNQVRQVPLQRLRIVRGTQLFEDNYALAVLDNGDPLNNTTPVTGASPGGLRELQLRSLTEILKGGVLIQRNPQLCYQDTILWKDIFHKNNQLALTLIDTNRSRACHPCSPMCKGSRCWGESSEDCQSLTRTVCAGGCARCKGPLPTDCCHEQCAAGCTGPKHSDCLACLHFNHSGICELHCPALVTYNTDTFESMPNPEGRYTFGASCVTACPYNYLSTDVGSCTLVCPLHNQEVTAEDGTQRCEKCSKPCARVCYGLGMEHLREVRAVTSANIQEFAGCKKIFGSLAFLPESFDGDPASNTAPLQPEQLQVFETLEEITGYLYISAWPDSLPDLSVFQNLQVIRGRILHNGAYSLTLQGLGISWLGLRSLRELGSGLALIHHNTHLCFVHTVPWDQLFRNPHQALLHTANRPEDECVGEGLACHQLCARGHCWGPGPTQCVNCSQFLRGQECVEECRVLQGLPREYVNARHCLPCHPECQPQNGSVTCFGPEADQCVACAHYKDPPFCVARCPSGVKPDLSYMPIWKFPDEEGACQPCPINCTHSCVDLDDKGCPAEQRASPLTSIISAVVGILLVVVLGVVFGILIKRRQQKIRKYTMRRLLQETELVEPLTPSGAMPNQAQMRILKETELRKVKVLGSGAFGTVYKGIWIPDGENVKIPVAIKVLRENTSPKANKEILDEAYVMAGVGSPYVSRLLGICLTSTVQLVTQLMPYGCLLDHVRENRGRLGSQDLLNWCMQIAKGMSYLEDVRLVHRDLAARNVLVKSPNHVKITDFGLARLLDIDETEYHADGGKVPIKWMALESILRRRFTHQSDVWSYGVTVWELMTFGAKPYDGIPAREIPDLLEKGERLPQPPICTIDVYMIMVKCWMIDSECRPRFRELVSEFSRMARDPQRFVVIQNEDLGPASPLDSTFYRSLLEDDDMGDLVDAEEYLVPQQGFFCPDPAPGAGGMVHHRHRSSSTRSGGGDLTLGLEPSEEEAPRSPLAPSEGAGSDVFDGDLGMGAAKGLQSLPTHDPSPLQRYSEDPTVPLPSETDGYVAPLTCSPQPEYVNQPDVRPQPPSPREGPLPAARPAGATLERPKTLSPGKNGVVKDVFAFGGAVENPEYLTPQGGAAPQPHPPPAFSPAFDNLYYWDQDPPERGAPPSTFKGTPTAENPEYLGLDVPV

Compound | IC50 [1] | IC50 [3] | IC50 [4] | IC50 [5] | IC50 (Her-2 enzyme) | IC50 [2] | RTV d22 [6] | T/C (%) d22 [6] | Inhibition rate (%) d22 ([6]; listed as Positive control)
CCOCCOc1cc2ncnc(Nc3ccc(OCCOC)c(Cl)c3)c2cc1NC(=O)/C=C/CN(C)C [Embodiment 15, (E)-N-(4-(3-chloro-4-(2-methoxyethoxy)phenylamino)-7-(2-ethoxyethoxy)quinazolin-6-yl)-4-(dimethylamino)but-2-enamide] | 20.1 nM | 3.43 nM | 1.66 nM | – | – | 7.3 nM | – | – | –
CCOCCOc1cc2ncnc(Nc3ccc(F)c(Cl)c3)c2cc1NC(=O)/C=C\Cl [Embodiment 32, (Z)—N-(4-(3-chloro-4-fluorophenylamino)-7-(2-ethoxyethoxy)quinazolin-6-yl)-3-chloroacrylamide] | – | – | – | 4000 nM | – | 1.6 nM | – | – | –
CCOCCOc1cc2ncnc(Nc3ccc(NCCS(C)(=O)=O)c(Cl)c3)c2cc1NC(=O)/C=C/CN(C)C [Embodiment 20, (E)-N-(4-(3-chloro-4-((2-(methylsulfonyl)ethyl)amino)phenylamino)-7-(2-ethoxyethoxy)quinazolin-6-yl)-4-(dimethylamino)but-2-enamide] | 6.49 nM | 0.538 nM | 12.7 nM | – | – | 65.6 nM | – | – | –
CN(C)CC=CC(=O)Nc1cc2c(Nc3ccc(F)c(Cl)c3)ncnc2cc1O[C@H]1CCOC1 [Afatinib, N-[4-[(3-chloro-4-fluorophenyl)amino]-7-[[(3S)-tetrahydro-3-furyl]oxy]-6-quinazolinyl)-4-(dimethylamino)-but-2-enamide, reference compound] | – | – | – | 6780 nM | – | – | 1.67 ± 0.20 | 22.44% | 67.6** %
CCOCCOc1cc2ncnc(Nc3ccc(OCc4cccc(F)c4)c(Cl)c3)c2cc1NC(=O)/C=C/CN(C)C [Embodiment 11, (E)-N-(4-(4-(3-fluorobenzyloxy)3-chlorophenylamino)-7-(2-ethoxyethoxy)quinazolin-6-yl)-4-(dimethylamino)but-2-enamide] | 79.5 nM | – | – | 2930 nM | 262 nM | 49.7 nM | – | – | –
CCOCCOc1cc2ncnc(Nc3ccc(OCC(F)(F)F)c(Cl)c3)c2cc1NC(=O)/C=C/CN(C)C [Embodiment 13, (E)-N-(4-(3-chloro-4-(2,2,2-trifluoroethoxy)phenylamino)-7-(2-ethoxyethoxy)quinazolin-6-yl)-4-(dimethylamino)but-2-enamide] | 64.1 nM | 2.9 nM | 2.56 nM | – | – | 107 nM | – | – | –
CCOCCOc1cc2ncnc(Nc3ccc(F)c(Cl)c3)c2cc1NC(=O)/C=C/Cl [Embodiment 31, (E)-N-(4-(3-chloro-4-fluorophenylamino)-7-(2-ethoxyethoxy)quinazolin-6-yl)-3-chloroacrylamide] | – | – | – | – | – | 7.43 nM | – | – | –
CCOCCOc1cc2ncnc(Nc3ccc(F)c(Cl)c3)c2cc1NC(=O)/C=C\C#N [Embodiment 38, (Z)—N-(4-(3-chloro-4-fluorophenylamino)-7-(2-ethoxyethoxy)quinazolin-6-yl)-3-cyanoacrylamide] | 94.8 nM | 5.56 nM | 0.68 nM | – | – | 18.4 nM | – | – | –
CCOCCOc1cc2ncnc(Nc3ccc(F)c(Cl)c3)c2cc1NC(=O)/C=C/CN(CC)CC [Embodiment 33, (E)-N-(4-(3-chloro-4-fluorophenylamino)-7-(2-ethoxyethoxy)quinazolin-6-yl)-4-(diethylamino)but-2-enamide] | – | – | – | 3530 nM | 10.9 nM | – | – | – | –
CCOCCOc1cc2ncnc(Nc3ccc(F)c(Cl)c3)c2cc1NC(=O)/C=C/C(=O)OC [Embodiment 37, methyl (E)-4-(4-((3-chloro-4-fluorophenylamino)-7-(2-ethoxyethoxy)quinazolin-6-yl)amino)-4-oxobut-2-enoate] | 207 nM | 0.987 nM | 21.6 nM | – | – | 35.2 nM | – | – | –
CCOCCOc1ccc(Nc2ncnc3cc(OCCOCC)c(NC(=O)/C=C/CN(C)C)cc23)cc1Cl [Embodiment 17, (E)-N-(4-(3-chloro-4-(2-ethoxyethoxy)phenylamino)-7-(2-ethoxyethoxy)quinazolin-6-yl)-4-(dimethylamino)but-2-enamide] | 13.7 nM | 0.343 nM | 2.53 nM | – | – | 6.17 nM | – | – | –
COC[C@H](C)Oc1cc2ncnc(Nc3ccc(F)c(Cl)c3)c2cc1NC(=O)/C=C/CN(C)C [Embodiment 3, (S,E)-N-(4-(3-chloro-4-fluorophenylamino)-7-(2-methoxy-1-methylethoxy)quinazolin-6-yl)-4-(dimethylamino)but-2-enamide] | 16.7 nM | – | – | 1960 nM | 482 nM | 66.5 nM | – | – | –
CCOCCOc1cc2ncnc(Nc3ccc(F)c(Cl)c3)c2cc1NC(=O)/C=C/C(F)(F)F [Embodiment 36, (E)-N-(4-(3-chloro-4-fluorophenylamino)-7-(2-ethoxyethoxy)quinazolin-6-yl)-4,4,4-trifluorobut-2-enamide] | 148 nM | 0.153 nM | 18.3 nM | – | – | 27.6 nM | – | – | –

Now from value to compound, other results behind:

IC50 [1] | IC50 [3] | IC50 [4] | IC50 [5] | IC50 (Her-2 enzyme) | Compound | IC50 [2] | RTV d22 [6] | T/C (%) d22 [6] | Inhibition rate (%) d22 ([6]; listed as Positive control)
11.4 nM | 1.47 nM | 3.43 nM | – | – | C#CC(=O)Nc1cc2c(Nc3ccc(F)c(Cl)c3)ncnc2cc1OCCOCC [Embodiment 25, N-(4-(3-chloro-4-fluorophenylamino)-7-(2-ethoxyethoxy)quinazolin-6-yl)propiolamide] | 49.3 nM | – | – | –
6.01 nM | 0.153 nM | 5.67 nM | – | – | C=CC(=O)Nc1cc2c(Nc3ccc(F)c(Cl)c3)ncnc2cc1OCCOCC [Embodiment 22, N-(4-(3-chloro-4-fluorophenylamino)-7-(2-ethoxyethoxy)quinazolin-6-yl)acrylamide] | 51.8 nM | – | – | –
54.5 nM | 0.538 nM | 58.2 nM | – | – | C=C(F)C(=O)Nc1cc2c(Nc3ccc(F)c(Cl)c3)ncnc2cc1OCCOCC [Embodiment 26, N-(4-(3-chloro-4-fluorophenylamino)-7-(2-ethoxyethoxy)quinazolin-6-yl)-2-fluoroacrylamide] | 72.5 nM | – | – | –
369 nM | 33.2 nM | 3.72 nM | – | – | C=C(Cl)C(=O)Nc1cc2c(Nc3ccc(F)c(Cl)c3)ncnc2cc1OCCOCC [Embodiment 27, N-(4-(3-chloro-4-fluorophenylamino)-7-(2-ethoxyethoxy)quinazolin-6-yl)2-chloroacrylamide] | 37.1 nM | – | – | –
297 nM | 4.87 nM | 4 nM | – | – | CCOCCOc1cc2ncnc(Nc3ccc(F)c(Cl)c3)c2cc1NC(=O)/C=C/Br [Embodiment 30, (E)-N-(4-(3-chloro-4-fluorophenylamino)-7-(2-ethoxyethoxy)quinazolin-6-yl)-3-bromoacrylamide] | 8.22 nM | – | – | –
3.38 nM | 3.95 nM | 130 nM | – | – | C=CS(=O)(=O)Nc1cc2c(Nc3ccc(F)c(Cl)c3)ncnc2cc1OCCOCC [Embodiment 24, N-(4-(3-chloro-4-fluorophenylamino)-7-(2-ethoxyethoxy)quinazolin-6-yl)ethenesulfonamide] | 13.7 nM | – | – | –
572 nM | 6.4 nM | 15.1 nM | – | – | C=C(Br)C(=O)Nc1cc2c(Nc3ccc(F)c(Cl)c3)ncnc2cc1OCCOCC [Embodiment 28, N-(4-(3-chloro-4-fluorophenylamino)-7-(2-ethoxyethoxy)quinazolin-6-yl)2-bromoacrylamide] | 39.4 nM | – | – | –
